Assay results published in ChEMBL document CHEMBL3132769, “Fragment growing to retain or alter the selectivity of anchored kinase hinge-binding fragments” (Medchemcomm, 2014).

How the values were obtained:
[1] = target: Fibroblast growth factor receptor 3 (Homo sapiens) (UniProt P22607); assay: Inhibition of human FGFR3 catalytic domain expressed in baculovirus assessed as substrate phosphorylation using fluorescence-labelled peptides as substrate at 0.06 uM after 90 mins by microfluidic peptide phosphorylation assay
[2] = target: Protein kinase C alpha type (Homo sapiens) (UniProt P17252); assay: Inhibition of human truncated PKC alpha expressed in baculovirus assessed as substrate phosphorylation using fluorescence-labelled peptides as substrate at 70 uM after 90 mins by microfluidic peptide phosphorylation assay
[3] = target: Casein kinase I isoform delta (Homo sapiens) (UniProt P48730); assay: Inhibition of human CK1D catalytic domain expressed in Escherichia coli cell assessed as substrate phosphorylation using fluorescence-labelled peptides as substrate at 0.2 uM after 90 mins by microfluidic peptide phosphorylation assay
[4] = target: MAP kinase-activated protein kinase 3 (Homo sapiens) (UniProt Q16644); assay: Inhibition of human full length MAPKAPK3 expressed in Escherichia coli cell assessed as substrate phosphorylation using fluorescence-labelled peptides as substrate at 0.2 uM after 90 mins by microfluidic peptide phosphorylation assay
[5] = target: T1, Cytoplasmic tyrosine-protein kinase BMX (Homo sapiens) (UniProt P51813); assay: Inhibition of human full length BMX expressed in baculovirus assessed as substrate phosphorylation using fluorescence-labelled peptides as substrate at 420 uM after 90 mins by microfluidic peptide phosphorylation assay
T1 sequence (whole entry): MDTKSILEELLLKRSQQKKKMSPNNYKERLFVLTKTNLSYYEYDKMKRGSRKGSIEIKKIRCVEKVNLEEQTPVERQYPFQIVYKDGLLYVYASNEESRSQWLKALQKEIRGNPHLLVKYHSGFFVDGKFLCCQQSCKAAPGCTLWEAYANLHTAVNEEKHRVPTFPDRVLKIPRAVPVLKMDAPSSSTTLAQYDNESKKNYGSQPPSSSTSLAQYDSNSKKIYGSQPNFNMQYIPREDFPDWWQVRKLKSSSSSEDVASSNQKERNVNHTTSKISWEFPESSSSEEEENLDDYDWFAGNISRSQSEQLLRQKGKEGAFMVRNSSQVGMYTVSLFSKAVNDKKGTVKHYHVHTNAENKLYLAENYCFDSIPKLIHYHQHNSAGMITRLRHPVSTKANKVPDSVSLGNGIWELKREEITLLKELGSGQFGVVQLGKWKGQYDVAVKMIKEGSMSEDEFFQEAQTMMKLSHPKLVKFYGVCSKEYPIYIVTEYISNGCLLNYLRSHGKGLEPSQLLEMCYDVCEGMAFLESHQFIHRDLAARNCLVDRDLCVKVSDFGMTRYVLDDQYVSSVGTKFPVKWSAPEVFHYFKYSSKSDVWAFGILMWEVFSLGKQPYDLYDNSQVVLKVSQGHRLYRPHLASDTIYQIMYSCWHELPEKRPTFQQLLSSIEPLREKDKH

[6] = target: Glycogen synthase kinase-3 beta (Homo sapiens) (UniProt P49841); assay: Inhibition of human full length GSK-3 beta expressed in baculovirus assessed as substrate phosphorylation using fluorescence-labelled peptides as substrate at 95 uM after 90 mins by microfluidic peptide phosphorylation assay
[7] = target: Glycogen synthase kinase-3 beta (Homo sapiens) (UniProt P49841); assay: Inhibition of human full length GSK-3 beta expressed in baculovirus assessed as substrate phosphorylation using fluorescence-labelled peptides as substrate at 9 uM after 90 mins by microfluidic peptide phosphorylation assay
[8] = target: T2, Mitogen-activated protein kinase 13 (Homo sapiens) (UniProt O15264); assay: Inhibition of human full length p38 delta expressed in Escherichia coli cell assessed as substrate phosphorylation using fluorescence-labelled peptides as substrate at 9 uM after 90 mins by microfluidic peptide phosphorylation assay
T2 sequence (whole entry): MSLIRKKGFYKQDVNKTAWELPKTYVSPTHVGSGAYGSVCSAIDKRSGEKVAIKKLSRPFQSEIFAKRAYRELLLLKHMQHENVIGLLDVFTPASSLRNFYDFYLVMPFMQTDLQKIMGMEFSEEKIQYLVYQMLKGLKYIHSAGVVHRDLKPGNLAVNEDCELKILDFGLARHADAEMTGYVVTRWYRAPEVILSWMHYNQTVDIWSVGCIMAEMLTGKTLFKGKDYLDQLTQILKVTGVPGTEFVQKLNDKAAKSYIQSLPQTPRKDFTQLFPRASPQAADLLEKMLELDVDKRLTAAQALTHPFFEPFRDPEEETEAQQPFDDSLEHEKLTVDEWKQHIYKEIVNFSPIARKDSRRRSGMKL

[9] = target: Ribosomal protein S6 kinase alpha-5 (Homo sapiens) (UniProt O75582); assay: Inhibition of human full length MSK1 expressed in baculovirus assessed as substrate phosphorylation using fluorescence-labelled peptides as substrate at 9 uM after 90 mins by microfluidic peptide phosphorylation assay
[10] = target: Calcium/calmodulin-dependent protein kinase type II subunit delta (Homo sapiens) (UniProt Q13557); assay: Inhibition of human full length CAMK2D expressed in baculovirus assessed as substrate phosphorylation using fluorescence-labelled peptides as substrate at 2 uM after 90 mins by microfluidic peptide phosphorylation assay
[11] = target: Tyrosine-protein kinase Lyn (Homo sapiens) (UniProt P07948); assay: Inhibition of human full length LYN expressed in baculovirus assessed as substrate phosphorylation using fluorescence-labelled peptides as substrate at […] after 90 mins by microfluidic peptide phosphorylation assay
[12] = target: Serine/threonine-protein kinase PAK 2 (Homo sapiens) (UniProt Q13177); assay: Inhibition of human truncated PAK2 expressed in Escherichia coli cell assessed as substrate phosphorylation using fluorescence-labelled peptides as substrate at 8 uM after 90 mins by microfluidic peptide phosphorylation assay
[13] = target: T3, cGMP-dependent protein kinase 1 (Homo sapiens) (UniProt Q13976); settings: 0.1 uM
T3 sequence (whole entry): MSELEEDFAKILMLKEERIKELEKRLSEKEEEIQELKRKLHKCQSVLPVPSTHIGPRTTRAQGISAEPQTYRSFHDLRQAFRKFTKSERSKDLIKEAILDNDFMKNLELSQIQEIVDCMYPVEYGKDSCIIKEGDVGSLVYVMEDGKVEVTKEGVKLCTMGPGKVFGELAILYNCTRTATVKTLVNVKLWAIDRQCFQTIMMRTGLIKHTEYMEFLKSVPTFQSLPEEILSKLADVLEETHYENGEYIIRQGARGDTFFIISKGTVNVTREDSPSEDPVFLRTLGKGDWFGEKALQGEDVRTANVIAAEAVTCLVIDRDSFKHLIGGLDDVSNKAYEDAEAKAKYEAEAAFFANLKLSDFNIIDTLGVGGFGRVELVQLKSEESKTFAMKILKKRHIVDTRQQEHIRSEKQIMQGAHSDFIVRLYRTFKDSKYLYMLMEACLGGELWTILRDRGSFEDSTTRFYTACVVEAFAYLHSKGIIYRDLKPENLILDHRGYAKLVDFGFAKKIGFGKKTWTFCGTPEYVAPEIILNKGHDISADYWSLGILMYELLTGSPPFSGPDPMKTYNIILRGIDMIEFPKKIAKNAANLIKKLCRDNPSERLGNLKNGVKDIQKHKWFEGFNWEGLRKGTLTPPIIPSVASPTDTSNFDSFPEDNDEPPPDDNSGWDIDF
Description: Inhibition of human full length PKG-1a expressed in baculovirus assessed as substrate phosphorylation using fluorescence-labelled peptides as substrate at 0.1 uM after 90 mins by microfluidic peptide phosphorylation assay

Chain of Glycogen synthase kinase-3 beta (Homo sapiens) (P49841 whole entry, looked up): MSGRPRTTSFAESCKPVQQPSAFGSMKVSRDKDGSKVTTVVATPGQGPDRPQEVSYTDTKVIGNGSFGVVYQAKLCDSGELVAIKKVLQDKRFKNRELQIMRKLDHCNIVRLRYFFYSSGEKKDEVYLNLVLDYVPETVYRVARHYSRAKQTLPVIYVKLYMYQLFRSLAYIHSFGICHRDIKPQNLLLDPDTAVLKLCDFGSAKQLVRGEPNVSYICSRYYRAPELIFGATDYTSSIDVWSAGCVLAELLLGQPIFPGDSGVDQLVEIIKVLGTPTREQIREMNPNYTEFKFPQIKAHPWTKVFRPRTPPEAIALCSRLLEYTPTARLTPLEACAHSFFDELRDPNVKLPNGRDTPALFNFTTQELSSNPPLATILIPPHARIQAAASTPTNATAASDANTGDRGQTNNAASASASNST
Chain of Calcium/calmodulin-dependent protein kinase type II subunit delta (Homo sapiens) (Q13557 whole entry): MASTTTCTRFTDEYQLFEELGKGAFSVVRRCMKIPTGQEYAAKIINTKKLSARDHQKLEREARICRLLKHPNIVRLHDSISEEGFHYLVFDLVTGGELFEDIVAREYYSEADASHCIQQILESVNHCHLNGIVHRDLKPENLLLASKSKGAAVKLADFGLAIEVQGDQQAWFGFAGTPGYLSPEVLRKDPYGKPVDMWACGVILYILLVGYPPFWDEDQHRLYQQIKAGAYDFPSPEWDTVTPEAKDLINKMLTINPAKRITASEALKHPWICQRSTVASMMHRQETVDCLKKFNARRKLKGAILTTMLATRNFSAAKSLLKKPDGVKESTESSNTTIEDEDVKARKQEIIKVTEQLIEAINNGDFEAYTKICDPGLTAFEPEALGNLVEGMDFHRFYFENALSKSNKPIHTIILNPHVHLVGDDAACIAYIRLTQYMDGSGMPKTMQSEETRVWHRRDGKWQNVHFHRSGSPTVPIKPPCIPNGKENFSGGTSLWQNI
Chain of Fibroblast growth factor receptor 3 (Homo sapiens) (P22607 23-806 limits assumed): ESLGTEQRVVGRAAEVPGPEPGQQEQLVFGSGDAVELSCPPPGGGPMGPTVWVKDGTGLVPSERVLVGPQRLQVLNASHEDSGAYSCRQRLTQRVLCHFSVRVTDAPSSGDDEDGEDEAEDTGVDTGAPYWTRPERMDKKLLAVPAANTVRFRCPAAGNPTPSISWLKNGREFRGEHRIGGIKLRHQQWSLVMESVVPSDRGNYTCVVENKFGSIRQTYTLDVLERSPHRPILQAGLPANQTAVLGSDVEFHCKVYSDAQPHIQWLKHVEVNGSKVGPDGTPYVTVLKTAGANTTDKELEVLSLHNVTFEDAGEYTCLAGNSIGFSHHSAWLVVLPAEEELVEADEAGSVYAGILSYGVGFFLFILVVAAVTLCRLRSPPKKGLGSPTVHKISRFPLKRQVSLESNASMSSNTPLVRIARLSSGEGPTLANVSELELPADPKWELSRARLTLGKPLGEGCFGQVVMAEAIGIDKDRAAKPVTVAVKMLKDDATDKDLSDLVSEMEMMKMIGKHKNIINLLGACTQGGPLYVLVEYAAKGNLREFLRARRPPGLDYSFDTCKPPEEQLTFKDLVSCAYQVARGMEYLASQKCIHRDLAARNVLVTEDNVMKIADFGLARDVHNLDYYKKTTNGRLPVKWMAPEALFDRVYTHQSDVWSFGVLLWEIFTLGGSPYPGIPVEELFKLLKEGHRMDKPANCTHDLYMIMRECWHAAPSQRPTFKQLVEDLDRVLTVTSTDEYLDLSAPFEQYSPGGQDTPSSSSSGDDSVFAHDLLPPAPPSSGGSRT
Chain of Ribosomal protein S6 kinase alpha-5 (Homo sapiens) (O75582 whole entry, looked up): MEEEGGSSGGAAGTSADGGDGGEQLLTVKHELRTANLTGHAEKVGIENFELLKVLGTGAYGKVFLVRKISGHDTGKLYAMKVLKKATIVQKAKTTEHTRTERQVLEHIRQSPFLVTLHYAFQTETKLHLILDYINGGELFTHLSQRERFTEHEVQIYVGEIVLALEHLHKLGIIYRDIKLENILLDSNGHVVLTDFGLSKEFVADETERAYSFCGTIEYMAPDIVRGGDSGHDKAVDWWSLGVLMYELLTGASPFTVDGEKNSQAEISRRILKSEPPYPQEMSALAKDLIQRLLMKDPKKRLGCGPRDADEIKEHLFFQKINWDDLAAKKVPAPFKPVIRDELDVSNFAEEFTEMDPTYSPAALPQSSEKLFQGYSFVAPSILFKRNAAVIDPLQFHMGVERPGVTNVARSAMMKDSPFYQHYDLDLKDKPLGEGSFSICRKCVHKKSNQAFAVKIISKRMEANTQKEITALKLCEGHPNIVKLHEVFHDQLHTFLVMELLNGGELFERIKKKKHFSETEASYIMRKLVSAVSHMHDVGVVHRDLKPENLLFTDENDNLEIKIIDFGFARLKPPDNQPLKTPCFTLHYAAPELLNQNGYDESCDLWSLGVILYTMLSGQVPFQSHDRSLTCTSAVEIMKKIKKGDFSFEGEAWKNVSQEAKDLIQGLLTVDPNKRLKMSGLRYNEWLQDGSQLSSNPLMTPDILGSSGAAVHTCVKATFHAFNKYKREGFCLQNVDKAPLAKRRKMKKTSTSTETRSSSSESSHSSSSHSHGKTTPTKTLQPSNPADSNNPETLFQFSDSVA
Chain of Serine/threonine-protein kinase PAK 2 (Homo sapiens) (Q13177 whole entry, the tested form may be a part): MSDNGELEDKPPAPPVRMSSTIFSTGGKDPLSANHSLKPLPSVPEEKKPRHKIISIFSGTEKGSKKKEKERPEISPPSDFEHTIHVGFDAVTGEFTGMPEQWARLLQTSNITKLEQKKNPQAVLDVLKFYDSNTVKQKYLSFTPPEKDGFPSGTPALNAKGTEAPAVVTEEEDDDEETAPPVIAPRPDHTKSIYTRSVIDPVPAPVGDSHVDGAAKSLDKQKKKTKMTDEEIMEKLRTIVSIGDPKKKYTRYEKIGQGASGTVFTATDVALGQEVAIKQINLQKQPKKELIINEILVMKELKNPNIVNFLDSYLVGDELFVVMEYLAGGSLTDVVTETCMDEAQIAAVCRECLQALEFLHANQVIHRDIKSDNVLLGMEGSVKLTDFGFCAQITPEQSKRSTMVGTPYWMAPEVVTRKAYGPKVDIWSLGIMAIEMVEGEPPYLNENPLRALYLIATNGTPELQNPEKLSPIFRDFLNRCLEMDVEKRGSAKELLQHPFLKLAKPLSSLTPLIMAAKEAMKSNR
Chain of Casein kinase I isoform delta (Homo sapiens) (P48730 whole entry, looked up, the tested form may be a part, canonical isoform): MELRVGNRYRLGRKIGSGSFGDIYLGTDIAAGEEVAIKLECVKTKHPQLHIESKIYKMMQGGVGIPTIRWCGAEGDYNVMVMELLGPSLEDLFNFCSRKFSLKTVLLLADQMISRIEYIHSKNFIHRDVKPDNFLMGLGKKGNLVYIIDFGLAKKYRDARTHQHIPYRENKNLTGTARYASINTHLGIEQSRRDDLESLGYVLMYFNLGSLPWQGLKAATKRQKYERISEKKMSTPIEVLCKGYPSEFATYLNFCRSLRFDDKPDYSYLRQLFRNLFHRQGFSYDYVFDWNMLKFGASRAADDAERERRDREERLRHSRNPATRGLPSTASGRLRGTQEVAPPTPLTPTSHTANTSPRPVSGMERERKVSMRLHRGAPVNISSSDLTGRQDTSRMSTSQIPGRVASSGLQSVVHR
Chain of Tyrosine-protein kinase Lyn (Homo sapiens) (P07948 2-512 limits assumed): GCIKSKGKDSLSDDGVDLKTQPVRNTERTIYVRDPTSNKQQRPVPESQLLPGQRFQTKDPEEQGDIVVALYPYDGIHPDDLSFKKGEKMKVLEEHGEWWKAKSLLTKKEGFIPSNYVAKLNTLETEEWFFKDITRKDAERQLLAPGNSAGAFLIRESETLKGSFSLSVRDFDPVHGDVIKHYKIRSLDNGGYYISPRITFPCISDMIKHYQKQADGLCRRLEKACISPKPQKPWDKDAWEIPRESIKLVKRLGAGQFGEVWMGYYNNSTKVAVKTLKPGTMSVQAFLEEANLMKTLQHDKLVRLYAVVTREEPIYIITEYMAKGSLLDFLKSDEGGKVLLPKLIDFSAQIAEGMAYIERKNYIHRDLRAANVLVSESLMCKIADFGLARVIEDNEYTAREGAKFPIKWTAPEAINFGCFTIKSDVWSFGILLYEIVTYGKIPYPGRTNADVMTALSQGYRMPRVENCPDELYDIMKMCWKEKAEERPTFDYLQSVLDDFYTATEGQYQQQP
Chain of MAP kinase-activated protein kinase 3 (Homo sapiens) (Q16644 whole entry, looked up): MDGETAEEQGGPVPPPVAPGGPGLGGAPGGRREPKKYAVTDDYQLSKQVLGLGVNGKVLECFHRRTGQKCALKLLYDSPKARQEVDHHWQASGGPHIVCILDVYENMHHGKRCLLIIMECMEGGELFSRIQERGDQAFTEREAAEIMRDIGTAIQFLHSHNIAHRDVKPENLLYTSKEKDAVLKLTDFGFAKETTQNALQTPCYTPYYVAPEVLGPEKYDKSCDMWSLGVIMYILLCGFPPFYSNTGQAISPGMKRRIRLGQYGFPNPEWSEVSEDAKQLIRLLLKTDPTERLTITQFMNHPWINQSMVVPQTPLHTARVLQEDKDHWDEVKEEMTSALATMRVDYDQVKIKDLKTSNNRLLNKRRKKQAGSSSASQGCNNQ

Question: With NC1(Cc2ccc(Cl)cc2)CCN(c2ncnc3[nH]ccc23)CC1 as the compound, how does the inhibition [1] read?
Answer: 0%

Question: For CNCc1ccc(-c2ncnc3[nH]cnc23)cc1, which inhibition [2] is on record?
Answer: 56%

Question: Clc1ccc(C2(c3ccc(-c4ncnc5[nH]cnc45)cc3)CCNCC2)cc1 was tested. Which inhibition [3] did it give?
Answer: 8.5%

Question: And the inhibition [4]?
Answer: 4%

Question: Which inhibition [5] does the source give for c1nc(N2CCOCC2)c2nc[nH]c2n1 here?
Answer: 62.5%

Question: Which inhibition [6] does the source give for NCCc1ccc(-c2ncnc3[nH]cnc23)cc1 here?
Answer: 55%

Question: Which results are given for NCC1CN(c2ncnc3[nH]c4cnccc4c23)CCO1 (stereo not drawn)?
Answer: inhibition [7]: 94%; inhibition [8]: 2%; inhibition [9]: 60%

Question: With NC1CCN(c2ncnc3[nH]ccc23)CC1 as the compound, how does the inhibition [10] read?
Answer: 8%

Question: Which inhibition [11] does the source give for COC(=O)c1cnc(Nc2cnc(C#N)cn2)cc1NCC1CCNCC1 here?
Answer: 8%

Question: Which inhibition [12] does the source give for NCC1CCN(c2ncnc3[nH]ccc23)CC1 here?
Answer: 24.5%

Question: Which inhibition [13] does the source give for C[C@H](CN(C)C)Oc1nc(Nc2cc3cccc(Cl)c3cn2)cnc1C#N here?
Answer: 0%
